Measurements reported in article PMC11289893 (RSC Chemical Biology, 2024).

Tested on: HeLa cells
Test: Cell proliferation
Assay type: cell-based
Conditions: tested concentrations 0 to 20 μM

COC[C@H]1OC(=O)c2coc3c2[C@@]1(C)C1=C(C3=O)[C@@H]2CCC(=O)[C@@]2(C)C[C@H]1OC(C)=O [Wortmannin]
cytotoxicity in HeLa cells: did not observe Wortmannin cytotoxicity
